Columns and labels:
[1] = biological target: T1, PPARγ (Homo sapiens, UniProt P37231); experiment: PPARγ agonist activity, GAL4-PPARγ beta-lactamase reporter HEK293 cells; format: cell-based; details: FIG. 11: 5 μM
T1 construct: host or cells: HEK293 (human embryonic kidney), stably transfected
T1 sequence (P37231 238-503 limits assumed): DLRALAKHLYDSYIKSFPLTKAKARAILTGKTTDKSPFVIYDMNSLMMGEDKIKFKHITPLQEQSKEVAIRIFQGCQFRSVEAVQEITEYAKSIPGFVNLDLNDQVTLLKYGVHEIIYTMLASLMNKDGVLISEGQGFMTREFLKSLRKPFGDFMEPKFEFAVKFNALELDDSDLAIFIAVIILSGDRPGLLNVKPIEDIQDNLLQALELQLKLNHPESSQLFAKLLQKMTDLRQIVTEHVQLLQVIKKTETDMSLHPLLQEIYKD
Method: Human HEK293 cells, stably transfected with the PPARγ ligand binding domain fused with the DNA binding domain of the GAL4 protein (GAL4-PPARγ fusion protein), produce beta-lactamase when incubated with PPARγ ligands. Transfected human kidney embryonic cells (Invitrogen Inc., Carlsbad, Calif.) were seeded onto matrigel in 96-well plates and allowed to attach overnight. The following day, vehicle alone (DMSO) or test compound at 1, 5 and 10 μM was added at varying concentrations to cells and incubated for 16-18 hours. Cells were then loaded with a FRET-based fluorescent substrate to assess beta-lactamase activity. Cells were protected from light, and incubated at room temperature for 2 h. Plates were read on a fluorescence plate reader with an excitation wavelength of 409 nm and emission wavelengths of 460 nm and 530 nm. Results were expressed as a ratio of these two wavelengths after the background (cell-free control wells) had been subtracted. PPARγ activity was thus determined by measuring beta-lactamase activity as assessed by a fluorescent product to substrate ratio.

[2] = tested on: Skh:hr-1 albino mice (UV-induced skin thickening); experiment: Murine model of UV irradiation-induced skin oedema; format: in vivo, mouse; details: for Change in skin thickness (mean ± SD, ×0.01 mm): 0.2 ml of 20 μM topical ×3
Text: Groups of 4-5 female Skh:hr-1 albino mice were irradiated with 1×3 MED (minimal erythemal dose) of solar simulated UV radiation, provided by a planar bank of 6 UVA tube (Hitachi 40W F40T 10/BL, black light) and one UVB tube (Philips TL 40W/12RS) with radiation filtered through a sheet of 0.125 mm cellulose acetate (Eastman Chemical Products, Kingport, Term, USA) to give 2.96×10-4 W/cm2 UVA and 1.59×10-5 W/cm2 UVB. The distance of the UV lamp from the irradiance table surface was approximately 20 cm and temperature was controlled with an electric fan. During irradiation, the cages were rotated below the lights to reduce the variation in radiation intensity in different positions.
Either test compound (0.2 ml of a 20 μM solution) or vehicle (propylene glycol/ethanol (EtOH)/water 1:2:1) was applied to the irradiated dorsal skin at 30 min, 2 h and 4 h post-irradiation. Dorsal skin fold measurements were made with a spring micrometer prior to and at 24 hr and 48 h post-UV exposure. The difference in skin thickness pre- and post-exposure to UVR was calculated for each mouse, and the differences examined between test compound and vehicle control were analysed using an unpaired two-tailed t test.
The data are presented in tables, as well as graphically as the mean percentage inhibition of skin fold thickness, calculated as [1−[(mean % change skin thickness of test group/mean % change skin thickness of control group)×100]].

[3] = tested on: TNFα; experiment: TNFα production by murine splenocytes; format: cell-based, mouse; details: 10 μM; LPS
Method: (§1) Male Skh-1 (hairless) mice, approximately six weeks old were killed by cervical dislocation. Single cell suspensions were made from the spleen and erythrocytes were lysed in buffer (0.14M NH4Cl, 17 mM Tris, pH 7.2). The remaining splenocytes were cultured in RPMI-1640 (Gibco) supplemented with 10% (v:v) FBS, 2 mM L-glutamine, pen/strep and 50 μM 2-mercaptoethanol. Splenocytes were added to quadruplicate wells containing either the T cell mitogen concanavalin A (Con A, Sigma-Aldrich—0. 4 μg/well), the B-cell mitogen LPS (Sigma-Aldrich—1 μg/well) or no mitogen, as well as test compound at a concentration of 10 μM in DMSO. Samples were analysed after a 3 day incubation at 37° C. in 5% CO2 in air. Cell viability was assessed by adding MTT to each well, incubating for a further 4 hrs and then developing colour with 0.04N HCl in isopropanol. Supernatant samples were frozen at −80° C. and IL-6, IFN-γ and TNFα were detected in triplicate using ELISA kits (BD Biosciences).

[4] = tested on: COX (PGE2 and TXB2 synthesis); experiment: LPS-induced prostanoid (PGE2, TXB2) synthesis in human monocytes; format: cell-based; details: LPS 200 ng/mL, 18 hrs, data at 10 μM
Method: Human peripheral blood monocytes were isolated from buffy coats by lymphoprep gradient separation followed by counter-current centrifugal elutriation. Test compounds were dissolved in DMSO and added to fresh monocytes to achieve concentrations of 0, 10 and 100 μM. After 30 min, lipopolysaccharide (LPS) was added to achieve a final concentration of 200 ng/mL. After incubation for 18 hrs at 37° C. in 5% CO2, supernatants were removed and PGE2 and TXB2 (the stable hydrolysis product of TXA2) production were measured by radioimmunoassay (RIA). ANOVA followed by Newman-Keuls multiple comparisons test was used to examine differences between doses and the control values.

[5] = tested on: splenocytes (T and B cells); experiment: Murine splenocyte viability and proliferation (Con A, LPS, no mitogen; MTT); format: cell-based, mouse; details: 10 μM, 3 day; for proliferation of T and B cells: Con A / LPS; for effect on non-proliferating (resting) splenocytes: no mitogen
Method: as §1

[6] = tested on: rat aortic ring; experiment: Rat aortic ring assay, contractile response to noradrenaline; details: 1 μg/ml
Method: The vasodilatory capacity was examined ex vivo using the rat aortic ring assay.
Male Sprague-Dawley rats (250±50 g) were euthanased with 80% CO2 and 20% O2. The thoracic aorta was excised and quickly mounted in organ-baths as described. Full concentration-contractile curves were obtained to noradrenaline (0.1 nM-[…]) with and without test compounds delivered at a concentration of 1 μg/ml. Experiments were repeated in n=5 different rings from 5 different animals. Only one compound at any one concentration was tested on any one ring from any one animal. Sigmoidal dose response curves were fitted for the data and the logEC50 and the Ema, calculated (Prism 4, GraphPad Software). The difference in these values between the presence and absence of test compound was calculated using a two-tailed paired t test. The effects of β-oestrodiol and vehicle alone were examined as a positive and negative control respectively.

[7] = 24 hrs post-irradiation, vehicle 78 ± 23
[8] = 48 hrs post-irradiation, vehicle 147 ± 37

Row | Compound | PPARγ activation (increase in beta-lactamase activity) [1] | Change in skin thickness (mean ± SD, ×0.01 mm) [2, 7] [×0.01 mm] | Change in skin thickness (mean ± SD, ×0.01 mm) [2, 8] [×0.01 mm] | TNFα synthesis by B cells [3] | COX inhibitory activity (inhibition of PGE2 and TXA2 production) [4] | proliferation of T and B cells [5] | effect on non-proliferating (resting) splenocytes [5] | contractile response (logEC50) of the aortic ring to noradrenaline [6] | UV-induced inflammation at 48 hrs ([2]; 48 hrs) | strength of the contractile response (Emax) [6] | UV-induced inflammation at 24 hrs ([2]; 24 hrs)
1 | COc1cccc(C2=Cc3ccc(O)cc3OC2)c1 [Cpd. 16, 7-Hydroxy-3′-methoxyisoflav-3-ene] | some PPARγ agonist activity | 61 ± 13 | 111 ± 15 | induced | significant COX inhibitory activity | augmented | augmented | – | – | – | –
2 | Cc1c(O)ccc2c1OCC(c1cccc(O)c1)=C2 [Cpd. 14, 3′,7-Dihydroxy-8-methylisoflav-3-ene] | – | 77 ± 5.6 | 137 ± 16 | induced | significant COX inhibitory activity | augmented | augmented | – | – | – | –
3 | Oc1ccc2c(c1)OCC(c1ccc(Br)cc1)=C2 [Cpd. 21, 4′-Bromo-7-hydroxyisoflav-3-ene] | – | – | – | induced | – | – | – | inhibited | – | – | –
4 | COc1ccc(C2=Cc3ccc(O)cc3OC2)cc1OC [Cpd. 18, 7-Hydroxy-3′,4′-dimethoxyisoflav-3-ene] | – | – | – | – | significant COX inhibitory activity | – | – | inhibited | – | – | –
5 | COc1ccc(C2=Cc3ccc(O)c(C)c3OC2)cc1OC [Cpd. 19, 7-Hydroxy-3′,4′-dimethoxy-8-methylisoflav-3-ene] | some PPARγ agonist activity | 63 ± 8.1 | 96 ± 5 | inhibited | significant COX inhibitory activity | – | – | – | significantly inhibited | – | –
6 | Oc1ccc(C2=Cc3ccc(O)c(Br)c3OC2)cc1 [Cpd. 20, 4′,7-Dihydroxy-8-bromoisoflav-3-ene] | some PPARγ agonist activity | 38 ± 4 | 123 ± 39 | induced | significant COX inhibitory activity | inhibited | suppressive | significantly inhibited | – | reduced | significantly inhibited
